Laboratory results reported in patent US9210928B2, “Plant development control composition” (Syngenta Crop Protection, LLC, priority 2008, dated 2015).
“Also recorded” adds a separate entry of the source.

Molecular target: T1, MmBCO2 (Mus musculus, UniProt Q99NF1)
T1 construct: All genes were full length except AtCCD7; expressed in transfected cells; host or cells: E. coli BL21(DE3) harbouring pAC-BETA
T1 sequence (Q99NF1 1-532): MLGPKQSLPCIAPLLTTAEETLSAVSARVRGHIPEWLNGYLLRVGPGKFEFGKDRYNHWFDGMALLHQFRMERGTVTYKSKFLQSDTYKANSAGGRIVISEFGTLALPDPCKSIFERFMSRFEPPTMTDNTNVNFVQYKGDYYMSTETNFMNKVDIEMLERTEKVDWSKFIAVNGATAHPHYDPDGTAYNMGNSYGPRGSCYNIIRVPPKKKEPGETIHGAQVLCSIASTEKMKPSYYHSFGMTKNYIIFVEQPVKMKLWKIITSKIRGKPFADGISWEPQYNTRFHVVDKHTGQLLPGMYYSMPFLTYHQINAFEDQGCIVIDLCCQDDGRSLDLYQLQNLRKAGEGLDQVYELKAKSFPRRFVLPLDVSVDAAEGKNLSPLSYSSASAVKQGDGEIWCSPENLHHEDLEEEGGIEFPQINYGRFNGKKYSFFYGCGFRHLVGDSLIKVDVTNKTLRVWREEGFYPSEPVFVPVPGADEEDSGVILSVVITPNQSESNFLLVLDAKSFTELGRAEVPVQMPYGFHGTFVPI
Assay: In vivo enzyme assay in β-carotene-producing E. coli expressing MmBCO2
Type: cell-based
Details: 100 μM inhibitor, 16 hours; FIG. 4
Excerpt: In vivo enzyme assays in E. coli—The genes of interest (supplemental Table S1) were cloned into the vector pET30c (Novagen) fused directly to the initial ATG codon with no tag, or into pGEX-4T such that the gene was fused to an N-terminal GST tag. All genes were full length except AtCCD7, which had the chloroplast signal sequence removed (supplemental methods). […] Therefore, this construct was used in subsequent assays. The plasmids were transferred to the E. coli expression strain BL21(DE3), harbouring pAC-BETA (38), and therefore producing β-carotene.
For each inhibitor assay, 2.5 ml LB media with the appropriate antibiotics (25 μg ml^−1 chloramphenicol and 50 μg ml^−1 kanamycin or 100 μg ml^−1 ampicillin) and 2.5 μM IPTG, was prepared. […] The supernatant was removed and the O.D.453-O.D.550 was measured. The amount of β-carotene was calculated using a standard curve generated from a dilution series of β-carotene (Sigma) in ethanol with 0.2% Triton X-100; the absolute levels of β-carotene are shown in FIG. 8. The relative inhibition was calculated by the equation: (Ci−Cc)/(C1−Cc)×100, where Ci is the carotenoid level with inhibitor and CCD present, Cc is the level with CCD but without the inhibitor and C1 is the level in a strain where lacZ is expressed instead of the CCD, and no inhibitor is present. […]

| Compound | relative inhibition of MmBCO2 in E. coli (in words) |
| --- | --- |
| COc1ccc(C(=O)N(O)Cc2ccccc2)cc1 [Compound F1, N-benzyl-4-methoxybenzoyl hydroxamic acid] | most effective compounds at inhibiting MmBCO2; also recorded: high inhibitory activity |
| COc1ccc(C(=O)N(O)Cc2ccc(F)cc2)cc1 [Compound F2, N-(4-fluorobenzyl)-4-methoxybenzoyl hydroxamic acid] | most effective compounds at inhibiting MmBCO2; also recorded: high inhibitory activity |
